Results: US20240308968A1, “FUNGICIDAL SUBSTITUTED HETEROCYCLES” (FMC Corporation, priority 2021, published 2024)

Tests used:
Zymoseptoria tritici = assay: Test A: preventive spray on wheat seedlings, wheat leaf blotch disease rating; format: in vivo; conditions: Zymoseptoria tritici, 456 h, 50 ppm, 100 = 100% disease control, 0 = no control
How it was run: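 Disease scored after 17 days in a 20 °C growth chamber, following 48 h at 24 °C in saturated air after spore inoculation with Z. tritici. Inoculation came one day after wheat seedlings were sprayed to run-off with test suspension (acetone/water 50/50, 50–250 ppm PEG400).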

[1] = test system: Puccinia recondita f. sp. Tritici; assay: Test B: preventive spray on wheat seedlings, wheat leaf rust disease rating; format: in vivo; conditions: Puccinia recondita, 192 h, 50 ppm, 100 = 100% disease control, 0 = no control
How it was run: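 Preventive test: one day after spraying wheat seedlings to run-off with ppm suspensions (acetone/water 1:1, 50-250 ppm PEG400), leaf rust spores were applied. Incubation was 24 h at saturation then 7 days at 20° C.; disease scored 0-100% control relative to untreated.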

[2] = test system: Blumeria graminis f. sp. Tritici; assay: Test C: preventive spray on wheat seedlings, wheat powdery mildew disease rating; format: in vivo; conditions: Blumeria graminis, 192 h, 50 ppm, 100 = 100% disease control, 0 = no control
How it was run: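 Disease control scored visually after 8 days at 20° C, on a 0–100 scale versus untreated controls. Seedlings had received a preventive run-off spray one day before dusting with powdery mildew spores; compounds were suspended in acetone/water (50/50) containing 50–250 ppm PEG400.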

Phakopsora pachyrhizi = assay: Test D: preventive spray on soybean seedlings, Asian soybean rust disease rating; format: in vivo; conditions: Phakopsora pachyrhizi, 216 h, 50 ppm, 100 = 100% disease control, 0 = no control
How it was run: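 Seedlings of soybean were challenged with rust spores one day after a run-off spray of test suspension (acetone/water 50/50, 50–250 ppm PEG400); after 24 h saturated humidity and 8 days growth, both at 22° C, disease was scored visually.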

Botrytis cinerea = assay: Test E: preventive spray on tomato seedlings, tomato Botrytis disease rating; format: in vivo; conditions: Botrytis cinerea, 120 h, 50 ppm, 100 = 100% disease control, 0 = no control
How it was run: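 Preventive test: one day after spraying seedlings to run-off with test suspension (ppm in acetone/water, 50–250 ppm PEG400), B. cinerea spores applied. Incubation 48 h at 20 °C saturated humidity plus 3 days at 24 °C preceded visual rating as percent disease control versus controls.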

Alternaria solani = assay: Test F: preventive spray on tomato seedlings, tomato early blight disease rating; format: in vivo; conditions: Alternaria solani, 120 h, 50 ppm, 100 = 100% disease control, 0 = no control
How it was run: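 Preventive test: a day after run-off spraying with acetone/water–PEG400 suspensions (ppm), seedlings received an A. solani spore inoculum. Incubation was 48 h at 27 °C in saturated air followed by 3 days in a 20 °C chamber. Visual scores express percent disease control versus untreated plants (0–100).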

SMILES	melting point [°C]	pest or weed control at 50 ppm (Zymoseptoria tritici) [%]	pest or weed control at 50 ppm [1] [%]	pest or weed control at 50 ppm [2] [%]	pest or weed control at 50 ppm (Phakopsora pachyrhizi) [%]	pest or weed control at 50 ppm (Botrytis cinerea) [%]	pest or weed control at 50 ppm (Alternaria solani) [%]
CCn1c(-c2c(F)cc(F)cc2F)c(-c2cc(OC)cc(OC)c2)cc(C#N)c1=O [Compound 69, 1,2-dihydro-5-(3,5-dimethoxyphenyl)-1-ethyl-2-oxo-6-(2,4,6-trifluorophenyl)-3-pyridinecarbonitrile]	185 to 187	100	100	99	86	93	99
COc1ccc(Cl)c(-n2nc(C)c(=O)c(Cl)c2-c2ccc(F)cc2)c1 [Compound 105, 5-chloro-1-(2-chloro-5-methoxyphenyl)-6-(4-fluorophenyl)-3-methyl-4(1H)-pyridazinone]	207 to 210	100	100	95	96	98	100
COc1cc(OC)c(Cl)c(-c2cc(C#N)c(=O)n(C)c2-c2ccc(F)cc2Cl)c1 [Compound 156, 5-(2-chloro-3,5-dimethoxyphenyl)-6-(2-chloro-4-fluorophenyl)-1,2-dihydro-1-methyl-2-oxo-3-pyridinecarbonitrile]	209 to 211	100	100	98	99	98	91
COc1cc(OC)cc(-c2cc(C#N)c(=O)n(C)c2-c2c(F)cc(F)cc2F)c1 [Compound 67, 1,2-dihydro-5-(3,5-dimethoxyphenyl)-1-methyl-2-oxo-6-(2,4,6-trifluorophenyl)-3-pyridinecarbonitrile]	180 to 183	100	100	84	92	98	98

Further lines, with some results ahead:

melting point [°C]	SMILES	pest or weed control at 50 ppm (Zymoseptoria tritici) [%]	pest or weed control at 50 ppm [1] [%]	pest or weed control at 50 ppm [2] [%]	pest or weed control at 50 ppm (Phakopsora pachyrhizi) [%]	pest or weed control at 50 ppm (Botrytis cinerea) [%]	pest or weed control at 50 ppm (Alternaria solani) [%]
192 to 195	COc1cc(OC)c(Cl)c(-n2nc(Cl)c(=O)c(C)c2-c2ccc(F)cc2Cl)c1 [Compound 92, 3-chloro-6-(2-chloro-4-fluorophenyl)-1-(2-chloro-3,5-dimethoxyphenyl)-5-methyl-4(1H)-pyridazinone]	100	100	99	100	96	99
148 to 151	COc1cc(OC)cc(-n2nc(C)c(=O)c(C)c2-c2ccc(F)cc2Cl)c1 [Compound 97, 6-(2-chloro-4-fluorophenyl)-3,5-dimethyl-1-(3,5-dimethoxyphenyl)-4(1H)-pyridazinone]	100	100	99	100	96	100
161 to 164	COc1cc(OC)c(Cl)c(-c2noc(=O)c(C)c2-c2ccc(F)cc2Cl)c1 [Compound 64, 3-(2-chloro-3,5-dimethoxyphenyl)-4-(2-chloro-4-fluorophenyl)-5-methyl-6H-1,2-oxazin-6-one]	97	100	98	99	91	99
